Laboratory results as given in publication PMC3351444, “Molecular Evolution of a Peptide GPCR Ligand Driven by Artificial Neural Networks” (PLoS ONE, 2012).
Read-outs that look alike come from different tables or passages of the source. Square brackets hold non-standard residues; d marks the D form. Peptide text beside a SMILES is read from it.

Target: T1, human CMKLR1 (Homo sapiens, UniProt Q99788)
T1 construct: host or cells: HEK293A (Invitrogen), stably expressing human Gα15
T1 sequence (Q99788 1-373): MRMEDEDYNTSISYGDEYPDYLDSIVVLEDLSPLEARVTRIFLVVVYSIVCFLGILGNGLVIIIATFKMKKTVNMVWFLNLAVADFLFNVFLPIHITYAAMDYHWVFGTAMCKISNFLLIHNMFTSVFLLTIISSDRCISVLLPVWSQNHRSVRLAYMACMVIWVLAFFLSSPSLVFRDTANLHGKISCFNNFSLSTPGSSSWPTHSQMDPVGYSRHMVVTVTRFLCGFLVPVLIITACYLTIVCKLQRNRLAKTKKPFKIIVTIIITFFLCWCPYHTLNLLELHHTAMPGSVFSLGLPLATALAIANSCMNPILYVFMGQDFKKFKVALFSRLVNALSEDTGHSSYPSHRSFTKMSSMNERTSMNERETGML
Experiment: Ca2+ mobilization (CellLux imaging) agonist assay in HEK293A cells expressing CMKLR1 and Gα15
Type: cell-based
Conditions: for EC50: NR where no EC50 is given, read-out: EC50
Procedure: HEK293A cells (Invitrogen) expressing CMKLR1 and Gα15 were seeded at 5*10^4 cells/well in a poly-D-lysine coated 96-well black well/clear bottom plate (BD Falcon) and cultured overnight. From eighteen to twenty-four hours later, cells were loaded with FLUO4-AM (Invitrogen). Then the cells were washed two times with C1 solution (130 mM NaCl, 5 mM KCl, 10 mM HEPES pH 7.4, 2 mM CaCl2, and 10 mM Glucose). After the final wash, a 100 µL of residual volume remained on the cells. Peptides were dissolved in 10% DMSO to a concentration of 1 mM and were diluted in C1 solution with 0.1 % BSA. They were aliquoted as 2x solutions in 96-well plates and were simultaneously transferred by the robotic system within the imager from the ligand plate to the cell plate. […] Fluorescence data was generated in duplicate and experiments were repeated for at least three times. […] For the calculation of concentration-response curves, signals of two wells receiving the same concentration of test substances were averaged and the fluorescence changes of corresponding buffer C1 wells were subtracted. Signals were normalized to background fluorescence. For the calculation of EC50 values, plots of amplitude versus concentrations were prepared in SigmaPlot 11.

[1] = Ca2+ mobilization, CMKLR1, decimal comma

Compound | max response [1] | EC50 [1] | max response
CC(C)C[C@H](NC(=O)[C@@H](N)Cc1ccc(O)cc1)C(=O)N1CCC[C@H]1C(=O)NCC(=O)N[C@@H](CCC(N)=O)C(=O)N[C@@H](Cc1ccccc1)C(=O)N[C@H](Cc1ccccc1)C(=O)N[C@@H](Cc1ccccc1)C(=O)N[C@@H](CO)C(N)=O [compound 4] (H-YLPGQF[dF]FS-NH2; N-terminus assumed) | 1,66 DF/F0 | – | –
C[C@H](NC(=O)[C@@H](Cc1ccccc1)NC(=O)[C@H](CCC(N)=O)NC(=O)CNC(=O)[C@@H]1CCCN1C(=O)[C@@H](Cc1ccc(O)cc1)NC(=O)[C@H](N)Cc1ccc(O)cc1)C(=O)N[C@H](Cc1ccc(O)cc1)C(=O)N[C@H](CO)C(N)=O [compound 8] (H-[dY][dY]PGQ[dF]A[dY][dS]-NH2; N-terminus assumed) | 1,31 DF/F0 | 1.88 µM | –
CC[C@H](C)[C@H](NC(=O)CNC(=O)[C@@H]1CCCN1C(=O)[C@H](Cc1ccccc1)NC(=O)[C@@H](N)Cc1ccc(O)cc1)C(=O)N[C@@H](Cc1ccccc1)C(=O)N[C@@H](C)C(=O)N[C@H](Cc1ccccc1)C(=O)N[C@@H](CO)C(N)=O [compound 10] (H-YFPGIFA[dF]S-NH2; N-terminus assumed) | 1,48 DF/F0 | 2.22 µM | –
NC(=O)CC[C@H](NC(=O)CNC(=O)[C@@H]1CCCN1C(=O)[C@H](Cc1ccccc1)NC(=O)[C@H](N)Cc1ccccc1)C(=O)N[C@@H](Cc1c[nH]c2ccccc12)C(=O)NCC(=O)N[C@@H](Cc1ccccc1)C(=O)N[C@@H](CO)C(N)=O [compound 12] (H-[dF]FPGQWGFS-NH2; N-terminus assumed) | 1,56 DF/F0 | 3.01 µM | –
C[C@H](NC(=O)[C@@H](Cc1ccccc1)NC(=O)[C@H](CCC(N)=O)NC(=O)CNC(=O)[C@@H]1CCCN1C(=O)[C@H](Cc1ccccc1)NC(=O)[C@@H](N)Cc1ccc(O)cc1)C(=O)N[C@@H](Cc1c[nH]c2ccccc12)C(=O)N[C@@H](CO)C(N)=O [compound 13] (H-YFPGQ[dF]AWS-NH2; N-terminus assumed) | 1,22 DF/F0 | 3.2 µM | –
C[C@H](NC(=O)[C@H](Cc1ccccc1)NC(=O)[C@H](CCC(N)=O)NC(=O)[C@H]1CCCN1C(=O)CNC(=O)[C@H](Cc1ccccc1)NC(=O)[C@@H](N)Cc1ccc(O)cc1)C(=O)N[C@@H](Cc1ccccc1)C(=O)N[C@@H](CO)C(N)=O [compound 14] (H-YFG[dP]QFAFS-NH2; N-terminus assumed) | 1,34 DF/F0 | 3.44 µM | –
NC(=O)CC[C@H](NC(=O)CNC(=O)[C@@H]1CCCN1C(=O)[C@@H](Cc1ccccc1)NC(=O)[C@H](N)Cc1ccccc1)C(=O)N[C@@H](Cc1ccccc1)C(=O)NCC(=O)N[C@H](Cc1ccc(O)cc1)C(=O)N[C@H](CC(N)=O)C(N)=O [compound 15] (H-[dF][dF]PGQFG[dY][dN]-NH2; N-terminus assumed) | 1,47 DF/F0 | 3.47 µM | –
CC[C@@H](C)[C@@H](NC(=O)[C@H](Cc1ccccc1)NC(=O)[C@H](CCC(N)=O)NC(=O)CNC(=O)[C@@H]1CCCN1C(=O)[C@H](Cc1ccccc1)NC(=O)[C@H](N)Cc1c[nH]c2ccccc12)C(=O)N[C@@H](Cc1ccccc1)C(=O)N[C@@H](CO)C(N)=O [compound 18] (H-[dW]FPGQF[dI]FS-NH2; N-terminus assumed) | 1,40 DF/F0 | 7.13 µM | –
C[C@H](NC(=O)[C@H](Cc1ccc(O)cc1)NC(=O)[C@@H](CCC(N)=O)NC(=O)CNC(=O)[C@@H]1CCCN1C(=O)[C@@H](Cc1ccc(O)cc1)NC(=O)[C@@H](N)Cc1ccc(O)cc1)C(=O)N[C@@H](Cc1ccc(O)cc1)C(=O)N[C@@H](CO)C(N)=O [compound 19] (H-Y[dY]PG[dQ]YAYS-NH2; N-terminus assumed) | 0,42 DF/F0 | 9.55 µM | –
C[C@H](N)C(=O)N[C@H](Cc1c[nH]c2ccccc12)C(=O)N1CCC[C@H]1C(=O)NCC(=O)N[C@@H](CCC(N)=O)C(=O)N[C@@H](Cc1ccccc1)C(=O)N[C@@H](C)C(=O)N[C@H](Cc1ccc(O)cc1)C(=O)N[C@@H](CO)C(N)=O [compound 21] (H-A[dW]PGQFA[dY]S-NH2; N-terminus assumed) | 0,30 DF/F0 | 16.5 µM | –
C[C@H](NC(=O)[C@H](Cc1c[nH]c2ccccc12)NC(=O)[C@H](CCC(N)=O)NC(=O)CNC(=O)[C@@H]1CCCN1C(=O)[C@H](Cc1c[nH]c2ccccc12)NC(=O)[C@@H](N)Cc1ccc(O)cc1)C(=O)N[C@H](Cc1ccccc1)C(=O)N[C@@H](CS)C(N)=O [compound 22] (H-YWPGQWA[dF]C-NH2; N-terminus assumed) | 0,44 DF/F0 | 18.6 µM | –
CC(C)C[C@H](NC(=O)[C@@H](N)Cc1ccc(O)cc1)C(=O)N1CCC[C@H]1C(=O)NCC(=O)N[C@@H](CCC(N)=O)C(=O)N[C@@H](Cc1ccccc1)C(=O)N[C@@H](C)C(=O)N[C@@H](Cc1ccccc1)C(=O)N[C@H](CO)C(=O)O [compound 33] | – | – | 0,51 DF/F0
CSCC[C@H](NC(=O)[C@@H](N)Cc1ccc(O)cc1)C(=O)N1CCC[C@H]1C(=O)NCC(=O)N[C@@H](CCC(N)=O)C(=O)N[C@@H](Cc1ccccc1)C(=O)N[C@@H](C)C(=O)N[C@@H](Cc1ccccc1)C(=O)N[C@H](CO)C(=O)O [compound 40] (H-YMPGQFAF[dS]-OH; N-terminus assumed) | – | – | 0,74 DF/F0
CC(C)C[C@H](NC(=O)[C@H](N)Cc1ccc(O)cc1)C(=O)N1CCC[C@H]1C(=O)NCC(=O)N[C@@H](CCC(N)=O)C(=O)N[C@@H](Cc1ccc(O)cc1)C(=O)N[C@@H](C)C(=O)N[C@@H](Cc1ccccc1)C(=O)N[C@@H](Cc1ccccc1)C(=O)O [compound 43] (H-[dY]LPGQYAFF-OH; N-terminus assumed) | 1,13 DF/F0 | – | –
CC(C)C[C@H](NC(=O)[C@@H](N)Cc1ccc(O)cc1)C(=O)N1CCC[C@H]1C(=O)NCC(=O)N[C@@H](CCC(N)=O)C(=O)N[C@@H](Cc1ccc(O)cc1)C(=O)N[C@@H](C)C(=O)N[C@@H](Cc1ccccc1)C(=O)N[C@H](CO)C(=O)O [compound 81] (H-YLPGQYAF[dS]-OH; N-terminus assumed) | 1,73 DF/F0 | – | –
C[C@H](NC(=O)[C@H](Cc1ccccc1)NC(=O)[C@H](CCC(N)=O)NC(=O)CNC(=O)[C@H]1CCCN1C(=O)CNC(=O)[C@@H]1CCCN1)C(=O)N[C@@H](Cc1ccccc1)C(=O)N[C@H](CO)C(=O)O [compound 97] (H-PG[dP]GQFAF[dS]-OH; N-terminus assumed) | 1,72 DF/F0 | 0.1 µM | –
CC(C)C[C@@H](NC(=O)[C@H](N)Cc1ccc(O)cc1)C(=O)N1CCC[C@H]1C(=O)NCC(=O)N[C@@H](CCC(N)=O)C(=O)N[C@@H](Cc1ccccc1)C(=O)N[C@@H](C)C(=O)N[C@@H](Cc1ccccc1)C(=O)N[C@H](CO)C(=O)O [compound 98] | – | – | 1,68 DF/F0
C[C@H](NC(=O)[C@H](CO)NC(=O)[C@H](Cc1ccccc1)NC(=O)[C@H](C)NC(=O)[C@H](Cc1ccccc1)NC(=O)[C@H](CCC(N)=O)NC(=O)[C@@H](N)Cc1ccccc1)C(=O)N[C@@H](Cc1ccccc1)C(=O)N[C@H](CO)C(=O)O [compound 103] (H-FQFAFSAF[dS]-OH; N-terminus assumed) | 1,76 DF/F0 | 0.194 µM | –
C[C@H](NC(=O)[C@H](Cc1ccccc1)NC(=O)[C@H](CCC(N)=O)NC(=O)CNC(=O)[C@@H]1CCCN1C(=O)[C@@H](N)Cc1ccccc1)C(=O)N[C@@H](Cc1ccccc1)C(=O)N[C@H](CO)C(=O)N[C@H](CO)C(=O)O [compound 105] (H-FPGQFAF[dS][dS]-OH; N-terminus assumed) | 1,81 DF/F0 | 0.611 µM | –
CC(C)C[C@H](NC(=O)CNC(=O)[C@H](Cc1ccc(O)cc1)NC(=O)[C@H](CC(C)C)NC(=O)[C@H](N)Cc1ccccc1)C(=O)N[C@@H](Cc1ccc(O)cc1)C(=O)N[C@@H](C)C(=O)N[C@@H](Cc1ccccc1)C(=O)N1CCC[C@@H]1C(=O)O [compound 108] (H-[dF]LYGLYAF[dP]-OH; N-terminus assumed) | 1,61 DF/F0 | 1.21 µM | –
CC(C)C[C@H](NC(=O)[C@@H](N)Cc1ccccc1)C(=O)N1CCC[C@H]1C(=O)NCC(=O)N[C@@H](CCC(N)=O)C(=O)N[C@@H](Cc1ccccc1)C(=O)N[C@@H](C)C(=O)N[C@@H](Cc1ccccc1)C(=O)N1CCC[C@@H]1C(=O)O [compound 110] (H-FLPGQFAF[dP]-OH; N-terminus assumed) | 1,59 DF/F0 | 1.77 µM | –
C[C@H](NC(=O)[C@H](Cc1ccccc1)NC(=O)[C@H](CCC(N)=O)NC(=O)CNC(=O)[C@@H]1CCCN1C(=O)[C@H](CC(=O)O)NC(=O)[C@H](N)Cc1ccc(O)cc1)C(=O)N[C@@H](Cc1ccccc1)C(=O)N[C@H](CO)C(=O)O [compound 112] (H-[dY]DPGQFAF[dS]-OH; N-terminus assumed) | – | – | 1,12 DF/F0
